Source: US5338845A, “Aspergillus species, cyclic dimeric dipeptide derivative substance P antagonist biosynthetic products thereof, and process for preparation thereof” (Sterling Winthrop Inc., priority 1992, dated 1994)

Experiments:
NK1 [1] = molecular target: T1, NK1 (Homo sapiens, UniProt P25103); experiment: NK1 functional assay: Substance P-induced 45Ca2+ efflux from human astrocytoma U373MG cells; assay type: cell-based; design: Human astrocytoma cells (U--373 MG, ATCC No. HTB 17) were cultured in 75-mL flasks; host or cells: U-373 MG human astrocytoma cells (intact monolayer); settings: read-out: IC50, inhibition of Substance P-induced 45Ca2+ efflux
NK3 = molecular target: T2, NK3 (Cavia porcellus, UniProt P30098); experiment: NK3 selective ligand 3H-senktide binding, guinea pig forebrain membrane preparation; settings: read-out: IC50 against NK3 selective ligand 3H-senktide
T2 construct: tested in a guinea pig forebrain membrane preparation; from tissue; host or cells: guinea pig forebrain membrane preparation
T2 sequence (P30098 1-440): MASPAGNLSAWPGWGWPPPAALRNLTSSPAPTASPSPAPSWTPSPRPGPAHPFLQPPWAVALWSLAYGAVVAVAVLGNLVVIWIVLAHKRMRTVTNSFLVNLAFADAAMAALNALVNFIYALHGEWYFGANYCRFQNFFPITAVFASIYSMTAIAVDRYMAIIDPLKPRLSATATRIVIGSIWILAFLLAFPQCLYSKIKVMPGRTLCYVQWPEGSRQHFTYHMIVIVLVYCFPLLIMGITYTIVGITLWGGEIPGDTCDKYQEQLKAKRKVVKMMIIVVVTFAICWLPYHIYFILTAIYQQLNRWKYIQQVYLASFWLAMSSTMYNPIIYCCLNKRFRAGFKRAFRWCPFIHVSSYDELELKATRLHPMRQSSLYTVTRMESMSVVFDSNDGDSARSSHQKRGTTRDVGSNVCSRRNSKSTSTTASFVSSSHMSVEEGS

NK2 receptor [2] = molecular target: T3, NK2 receptor (Homo sapiens, UniProt P21452); experiment: 125I-neurokinin A binding to the NK2 receptor in human urinary bladder membranes; settings: read-out: Ki, inhibition of 125I-neurokinin A binding to the NK2 receptor
T3 construct: NK2 receptor in both rat duodenum and human urinary bladder membranes; from tissue; host or cells: human urinary bladder membranes
T3 sequence (P21452 1-398): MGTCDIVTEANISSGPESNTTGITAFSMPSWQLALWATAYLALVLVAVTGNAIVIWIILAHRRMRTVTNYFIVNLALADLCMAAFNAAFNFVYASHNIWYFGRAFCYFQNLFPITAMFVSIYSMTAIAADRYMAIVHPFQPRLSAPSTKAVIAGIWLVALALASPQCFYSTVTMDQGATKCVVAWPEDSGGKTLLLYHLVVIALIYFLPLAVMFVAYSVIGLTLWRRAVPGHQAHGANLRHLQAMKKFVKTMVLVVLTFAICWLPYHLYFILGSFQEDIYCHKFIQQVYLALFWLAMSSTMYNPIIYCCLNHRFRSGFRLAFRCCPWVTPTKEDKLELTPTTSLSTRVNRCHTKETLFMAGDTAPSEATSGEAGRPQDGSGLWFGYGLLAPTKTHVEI

NK1 [3] = molecular target: T1, NK1; experiment: Substance P NK1 receptor binding, 125I-Bolton Hunter Substance P, human astrocytoma cells (U-373 MG); design: host or cells: U-373 MG human astrocytoma cells (intact monolayer); settings: for IC50: comparative test with ditryptophenaline, read-out: IC50, Substance P antagonist activity in human astrocytoma cells
Method: (§1) As stated above the compounds of Formula I are useful as Substance P antagonists and therefore as analgesic and/or antiinflammatory agents. Substance P antagonist NK1 receptor binding activity was determined using guinea pig submaxillary gland tissue and human astrocytoma cells.
Human astrocytoma cells (U--373 MG, ATCC No. HTB 17) were cultured in 75-mL flasks in an aqueous medium containing horse serum (heat inactivated, 10%), minimum essential amino acids (2%), minimum essential vitamin solution (2%), and an aqueous solution of penicillin (10,000 units/mL) and streptomycin (10,000 μg/mL) (Penn-Strep, 2%), which was sterilized by filtration through a disposable filter (Nalgene, VWR Cat. No. 28199-585). The medium was replaced twice weekly. Cells were passaged (1:4 split) by removing the medium and adding aqueous trypsin (0.25%, 8 mL/flask). The flasks were swirled for 30 seconds, the aqueous trypsin was removed, and the cells were incubated for 5 minutes at room temperature, then washed twice with fresh medium (7 mL each time). Poly-D-lysine solution (50 μg/mL in aqueous phosphate saline buffer, 0.25 mL) was added to each well of a sterile 96-well […] plate (Corning), which was then incubated at room temperature for 40 minutes. The poly-D-lysine solution was removed, each well was washed twice with aqueous phosphate saline buffer (0.25 mL), cells were added (0.2 mL/well), and the plate was incubated at 37° C. for two days in an oxygen-carbon dioxide (95:5) atmosphere to provide a monolayer of 1.4-1.9×10^4 cells per well.
To test for receptor binding the aqueous phosphate saline buffer was removed from each well, the cell monolayer was washed three times with assay buffer (aqueous 2-[4-(2-hydroxyethyl)-1-piperazinyl]ethanesulfonic acid [HEPES], 25 mM; potassium chloride, 5.8 mM; monopotassium phosphate, 2.2 mM; sodium chloride, 115 mM; magnesium sulfate, 0.6 mM; calcium chloride, 1.8 mM; bovine serum albumin, 1%; glucose, 5 mM; thiorphan, 1 μM; and bacitracin, 40 μg/mL; pH adjusted to 7.40 with dilute hydrochloric acid; 0.25 mL each time). To each well was then added assay buffer alone (0.1 mL) or a mixture (0.1 mL) with assay buffer as diluent containing ^125 I-Bolton Hunter Substance P (Amersham, Inc., Arlington Heights, Ill.; 0.1 nanomole) and test compound in amount to give the desired concentration thereof or, to determine nonspecific binding, unlabelled Substance P (0.1 micromole) and the plate was incubated at 25° C. for 90 minutes. […] The radioactivity of part (100 μL) of the detachment mixture was measured in a gamma ray counter (Packard Cobra). Kd and IC50 values were determined and a Ki value was calculated for each test compound as described above.

NK2 receptor [4] = molecular target: T4, NK2 receptor (Rattus norvegicus, UniProt P16610); experiment: 125I-neurokinin A binding to the NK2 receptor in rat duodenum membranes; design: from tissue; settings: read-out: Ki, inhibition of 125I-neurokinin A binding to the NK2 receptor
T4 sequence (P16610 1-390): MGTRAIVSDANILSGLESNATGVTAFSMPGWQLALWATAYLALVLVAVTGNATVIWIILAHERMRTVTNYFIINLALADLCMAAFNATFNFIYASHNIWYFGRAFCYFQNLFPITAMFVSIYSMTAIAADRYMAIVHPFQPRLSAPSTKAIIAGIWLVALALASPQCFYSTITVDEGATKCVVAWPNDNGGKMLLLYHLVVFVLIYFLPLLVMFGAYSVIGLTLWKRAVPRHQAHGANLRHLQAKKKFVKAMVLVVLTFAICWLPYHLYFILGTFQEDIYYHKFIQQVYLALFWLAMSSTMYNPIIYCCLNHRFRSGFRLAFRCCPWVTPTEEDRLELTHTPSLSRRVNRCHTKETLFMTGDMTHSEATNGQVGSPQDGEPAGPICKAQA

NK2 receptor [5] = molecular target: T4, NK2 receptor; experiment: Eledoisin-induced contractility in rat vas deferens model; assay type: cell-based; design: from tissue; host or cells: rat vas deferens (organ preparation); settings: functional antagonism at the NK2 receptor, read-out: IC50, inhibition of eledoisin-induced contractility
NK1 [6] = molecular target: T5, NK1 (Cavia porcellus, UniProt P30547); experiment: Substance P NK1 receptor binding, tritiated Substance P, guinea pig submaxillary gland tissue; design: the resulting submaxillary gland tissue preparation (1.0 to 1.5 mL) was stored at -70° C; tissue Pel Freeze Biologicals; host or cells: guinea pig submaxillary gland homogenate; settings: tritiated Substance P 0.75 nM; Ki calculated from IC50 by Cheng-Prusoff; read-out: Ki Guinea Pig Submaxillary Gland Tissue (Substance P antagonist potency)
Method: as §1
Submaxillary glands from both sexes of Hartley guinea pigs were obtained from Pel Freeze Biologicals, Rogers, Arkansas by overnight express in a plastic bag kept cold in wet ice. […] Using serum bovine albumin as the standard the protein yield was determined by the Bradford method (Bio-Rad, Richmond, Calif.) to be 7-8 mg/mL or about 250 mg from 50 submaxillary glands.
To test for receptor binding a sample of the submaxillary gland tissue preparation was thawed on ice and rehomogenized with a glass homogenizer (Dounce). […] The residue on the filter was washed three times with tromethamine buffer (3 mL each time) and its radioactivity was measured in a liquid scintillation counter (Beckman LS5000) (x=number of counts per minute with test compound, y=number of counts per minute without test compound). […] The dissociation constant (Kd) for receptor binding was determined by varying the concentration of tritiated Substance P. The following calculations were made: […]

NK1 [7] = molecular target: T5, NK1; experiment: NK1 functional assay: Substance P-induced contractility in the guinea pig ileum; assay type: cell-based; design: Substance P-induced contractility in the guinea pig ileum; from tissue; host or cells: guinea pig ileum (organ preparation)
[8] = quoted from Springer et al., Tetrahedron Letters 1977; cited from earlier work

T1 sequence (P25103 whole entry): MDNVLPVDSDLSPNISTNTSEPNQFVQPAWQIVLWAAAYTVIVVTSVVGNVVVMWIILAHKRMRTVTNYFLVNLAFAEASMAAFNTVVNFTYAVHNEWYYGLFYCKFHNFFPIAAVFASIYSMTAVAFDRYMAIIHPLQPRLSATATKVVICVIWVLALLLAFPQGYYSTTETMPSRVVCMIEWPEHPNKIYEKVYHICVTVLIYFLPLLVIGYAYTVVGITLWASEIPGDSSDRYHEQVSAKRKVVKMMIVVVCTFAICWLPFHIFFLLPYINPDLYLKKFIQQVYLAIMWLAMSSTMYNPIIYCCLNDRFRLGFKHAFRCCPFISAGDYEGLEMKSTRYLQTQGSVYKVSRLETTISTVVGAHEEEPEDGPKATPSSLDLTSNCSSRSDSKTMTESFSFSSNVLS
T5 sequence (P30547 whole entry): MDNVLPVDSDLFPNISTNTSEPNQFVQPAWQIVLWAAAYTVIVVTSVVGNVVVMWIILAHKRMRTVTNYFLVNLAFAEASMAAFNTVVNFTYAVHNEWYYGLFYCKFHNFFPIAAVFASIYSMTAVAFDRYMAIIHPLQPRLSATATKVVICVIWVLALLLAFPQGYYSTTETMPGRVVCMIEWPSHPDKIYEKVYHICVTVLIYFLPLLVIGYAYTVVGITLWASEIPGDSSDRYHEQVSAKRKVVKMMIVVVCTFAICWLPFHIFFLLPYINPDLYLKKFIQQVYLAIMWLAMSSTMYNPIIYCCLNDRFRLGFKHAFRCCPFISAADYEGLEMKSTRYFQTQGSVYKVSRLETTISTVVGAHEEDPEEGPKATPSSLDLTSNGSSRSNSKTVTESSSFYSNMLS

| IC50 (NK1 [1]) [nM] | IC50 (NK3) [nM] | Ki (NK2 receptor [2]) [nM] | Ki (NK1 [3]; U-373 MG cells, 125I-Bolton Hunter Substance P, Ki calculated from IC50, read-out: Ki Human Astrocytoma Cells (Substance P antagonist potency)) [nM] | Potency relative to ditryptophenaline (NK1 [3]; ratio of IC50 values in human astrocytoma cells) | Ki (NK2 receptor [4]) [nM] | IC50 (NK2 receptor [5]) [nM] | Ki (NK1 [6]) [nM] | pA2, competitive inhibition of Substance P-induced contractility (NK1 [7]) | SMILES | IC50 (NK1 [3]) [nM] | LD50 [8] [mg/kg] |
| --- | --- | --- | --- | --- | --- | --- | --- | --- | --- | --- | --- |
| 600 ± 300 | 15200 | 720 | 240 | fortyfold | 260 | 3400 ± 1300 | 950 to 2400 | 6.6±0.31 | O=C1N[C@@H](Cc2ccccc2)C(=O)N2[C@H]3Nc4ccccc4C3([C@]34C[C@H]5C(=O)N[C@@H](Cc6ccccc6)C(=O)N5[C@H]3Nc3ccccc34)C[C@@H]12 (stereo partly drawn) [Compound I-1] | 300 |  |
|  |  |  |  |  |  |  |  |  | CN1C(=O)[C@@H]2C[C@@]3([C@@]45C[C@H]6C(=O)N(C)[C@@H](Cc7ccccc7)C(=O)N6[C@@H]4Nc4ccccc45)c4ccccc4N[C@H]3N2C(=O)[C@@H]1Cc1ccccc1 [ditryptophenaline, reference compound] | 12000 | > 200 |
